## CC(N)(CO)COC(C)(C)C (stereo not shown) [Compound 301, 2-amino-3-tert-butoxy-2-methyl-propan-1-ol]
  melting point: 30 to 35 °C

Source: US7002010B2, “Process for the preparation of morpholinones as light stabilizers” (Ciba Specialty Chemicals Corporation, priority 2000, dated 2006)
